Read-outs that look alike come from different tables or passages of the source.

This passage reports Ki, remaining activity and Km results from article PMC7823355, “Pretreatment Effect of Inflammatory Stimuli and Characteristics of Tryptophan Transport on Brain Capillary Endothelial (TR-BBB) and Motor Neuron Like (NSC-34) Cell Lines” (Biomedicines, 2020).

What all share (format): cell-based
In test [1] the target is T1, LAT1 (L-type amino acid transporter 1) (Rattus norvegicus, UniProt Q63016).
T1 construct: gene Slc7a5; endogenous LAT1 in TR-BBB cells
T1 sequence (Q63016 whole entry): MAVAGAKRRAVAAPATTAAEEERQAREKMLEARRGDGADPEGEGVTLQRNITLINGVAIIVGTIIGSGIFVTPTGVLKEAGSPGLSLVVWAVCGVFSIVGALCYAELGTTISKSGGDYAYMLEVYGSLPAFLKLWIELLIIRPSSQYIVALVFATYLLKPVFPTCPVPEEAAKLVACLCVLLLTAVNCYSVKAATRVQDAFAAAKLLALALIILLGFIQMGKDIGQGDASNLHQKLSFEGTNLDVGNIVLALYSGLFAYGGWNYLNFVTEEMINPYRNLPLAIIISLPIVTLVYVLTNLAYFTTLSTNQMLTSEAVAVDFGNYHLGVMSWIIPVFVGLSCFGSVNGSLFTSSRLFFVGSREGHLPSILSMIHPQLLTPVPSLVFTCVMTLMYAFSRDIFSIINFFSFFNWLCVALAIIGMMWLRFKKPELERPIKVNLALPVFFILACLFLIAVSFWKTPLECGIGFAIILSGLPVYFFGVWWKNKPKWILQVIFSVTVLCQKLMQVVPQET
Kind of test: competitive inhibition of [3H]L-tryptophan uptake in TR-BBB cells (Lineweaver-Burk).

Test [2] has as its target T1, LAT1 (L-type amino acid transporter 1). Kind of test: inhibition of [3H]L-tryptophan uptake in TR-BBB cells at […] ([…] of control). The following applies: read-out: Relative Uptake / (% of Control).
For test [3], the target named is T2, LAT1 (L-type amino acid transporter 1) (Mus musculus, UniProt Q9Z127).
T2 construct: gene Slc7a5; endogenous LAT1 in NSC-34 (hSOD1^WT) cells
T2 sequence (Q9Z127 whole entry): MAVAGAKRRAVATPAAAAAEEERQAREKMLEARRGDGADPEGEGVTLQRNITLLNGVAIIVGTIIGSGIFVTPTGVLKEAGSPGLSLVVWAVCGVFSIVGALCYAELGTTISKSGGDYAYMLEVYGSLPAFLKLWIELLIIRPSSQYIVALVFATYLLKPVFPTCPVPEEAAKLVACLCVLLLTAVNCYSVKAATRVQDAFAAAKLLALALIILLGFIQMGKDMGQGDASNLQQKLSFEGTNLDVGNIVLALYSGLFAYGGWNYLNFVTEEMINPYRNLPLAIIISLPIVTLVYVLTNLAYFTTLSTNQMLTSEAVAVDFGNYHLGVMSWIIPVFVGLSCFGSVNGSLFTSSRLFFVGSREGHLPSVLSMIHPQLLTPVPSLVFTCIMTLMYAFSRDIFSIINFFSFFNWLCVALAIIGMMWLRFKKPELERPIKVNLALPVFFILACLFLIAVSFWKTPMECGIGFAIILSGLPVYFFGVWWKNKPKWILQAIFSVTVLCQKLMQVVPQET
Description: radiolabelled uptake kinetics (Km) in NSC-34 cells, with LAT1 siRNA knockdown. From the text: radiolabelled uptake kinetics (Km) in NSC-34 cells, with LAT1 siRNA knockdown on LAT1 (L-type amino acid transporter 1) | LAT1 mRNA expression and tryptophan uptake results indicated significant depletion effect in LAT1 siRNA-transfected WT and MT cell lines

Usually Ki stands for a dissociation constant, usually derived from enzyme kinetics or from competition with a known ligand. Take `NCC(CC(=O)O)c1ccc(Cl)cc1` (stereo not shown) [Baclofen]: in test [1] (read-out: Ki), the Ki came to 1620 µM.

With `NC1(C(=O)O)CC2CCC1C2` (stereo not shown) [BCH], the remaining activity at 2000 µM in test [2] stood at 21 ± 1.3%.

`NCC1(CC(=O)O)CCCCC1` [Gabapentin] displayed a Ki in test [1] of 210 µM.

As a reminder, the Km is the substrate concentration at which the rate is half of its maximum. Consider `N[C@@H](Cc1c[nH]c2ccccc12)C(=O)O` [L-tryptophan], for which the Michaelis-Menten constant (Km) in test [3] amounted to 33.1 ± 1.2 µM.
